The test system of this test is human dermal fibroblasts (HDFs). Description: qRT-PCR of HDFs treated with ATRA for four days. Type of test: cell-based. As to the method: Cell culture and maintenance. Human dermal fibroblasts (HDFs) were isolated from the dermis of human juvenile foreskin and expanded in Dulbecco's Modified Eagle's medium (DMEM) (Lonza, Basel, SWI) supplemented with 10% fetal bovine serum (FBS) (Sigma-Aldrich, St. Louis, MO), 1× Antibiotic-Antimycotic (Anti-Anti) (Gibco, Waltham, MA), 1× MEM Non-Essential Amino Acids (MEM NEAA) (Gibco, Waltham, MA), and 1× GlutaMAX Supplement (GlutaMAX) (Gibco, Waltham, MA) at 37° C. with 5% CO2. The Platinum-A (Plat-A) retroviral packaging cell line (Cell Biolabs, San Diego, CA) was maintained in the same medium without Anti-Anti and used for transfection at passages four to seven. HDFs and directly reprogrammed smooth muscle cells (rSMCs) were maintained in DMEM with low glucose (HyClone, Logan, UT) supplemented with 5% FBS, Anti-Anti, MEM NEAA, and GlutaMAX.
Generation of directly reprogrammed SMCs. For direct reprogramming of HDFs into contractile SMCs, HDFs were seeded at a density of 1.5×10^5 cells per ml in DMEM (Lonza) supplemented with 10% FBS (Sigma-Aldrich), Anti-Anti (Gibco), MEM NEAA (Gibco), and GlutaMAX (Gibco) at 37° C. with 5% CO2. The cells were infected overnight with filtered retroviral medium containing four μg per ml of polybrene (Sigma-Aldrich) with or without 0.4, 2, or 10 μM per liter of all-trans retinoic acid (ATRA) (Sigma-Aldrich), and the viral medium was replaced with DMEM/low glucose (HyClone) supplemented with 5% FBS, Anti-Anti, MEM NEAA, and GlutaMAX with or without ATRA for 24 hrs. The viral infection was repeated twice, and the cells were maintained in DMEM/low glucose containing 5% FBS with or without ATRA for the duration of culture.
[…] reverse transcriptase polymerase chain reaction (qRT-PCR). Total ribonucleic acid (RNA) was isolated from cells using the RNeasy Mini Kit (QIAGEN, Hilden, GE) or TRIsure (Bioline, Memphis, TN), according to the manufacturer's instructions. The extracted RNA was reverse transcribed with TaqMan Reverse Transcription Reagents (Applied Biosystems, Foster City, CA), according to the manufacturer's instructions. The synthesized cDNA was amplified with PowerUP SYBR Green Master Mix (Thermo Fisher Scientific, Waltham, MA), according to the manufacturer's instructions, and was subject to qRT-PCR with human or mouse specific primers, as shown in Table 1. Quantitative assessment of RNA levels was performed using a QuantStudio 3 96-well 0.2-ml real-time PCR system (Applied Biosystems). The relative messenger RNA (mRNA) expression was normalized to GAPDH.
(In general: Real-time PCR tracks product formation cycle by cycle.)

Where [1] appears, read: ATRA-treated vs untreated HDFs, four days.

Here are results for one compound from patent US20260201336A1, “REPROGRAMMED SMOOTH MUSCLE CELLS AND METHODS RELATED THERETO” (EMORY UNIVERSITY, priority 2022, published 2026).

SMILES strings stand for the structures.

For the compound `CC1=C(/C=C/C(C)=C/C=C/C(C)=C/C(=O)O)C(C)(C)CCC1` [ATRA, (2E,4E,6E,8E)-3,7-dimethyl-9-(2,6,6-trimethylcyclohexen-1-yl) nona-2,4,6,8-tetraenoic acid], under setting [1], the “expression of S100A4” value was “substantially reduced”; the “fold increase of SMC gene expression, CALD1” value is 1.1 fold; the “fold increase of SMC gene expression, MYH11” value turned out to be 6.1 fold; the “mRNA expression of STRA6 and the SMC genes” value is listed as “increased”. The “most effective concentration for induction of SMC gene expression” value (among the tested ATRA concentrations, HDFs) was determined as 2 µM.
